Data from patent publication US20070149481A1, “N,n-bridged, nitrogen-substituted carbacyclic indolocarbazoles as protein kinase inhibitors” (priority 2002, published 2007).

Tests used:
Type in all cases: biochemical
Settings in all cases: 10 μM compound
His tagged ERK2 = His tagged ERK2 (Homo sapiens, UniProt P28482); experiment: Extracellular signal Regulated Kinase 2 inhibition assay (ERK2), radioactive filtermat format
Experimental: (§1) The ERK2 kinase activity assay utilizes a radioactivity-based format in a 96-well PCR plate with radioactive readout. The ERK2 activity was assayed in a 25 μL assay mixture containing 25 mM HEPES (pH 7.0), 250 μM ATP, 1 mM MgCl2, 1 mM DTT, 2% DMSO, 150 ng/mL Myelin Basic Protein (MBP, Sigma M-1891), and 13.6 ng/mL His tagged ERK2 (specific activity=38.1 nmol/min*mg). Compounds were screened for inhibition of the ERK2 kinase activity at a concentration of 10 μM. The kinase reaction was allowed to proceed at 37° C. for 30 minutes, then reaction was stopped by the addition of 5 μl of 0.5M EDTA (pH 8). 15 μL of each solution were then spotted onto the corresponding square of a filtermat (8×12 glassfibre mat 90×120 mm, PE-Wallac 1450-421). The filtermat was allowed to dry and washed once with 10% TCA, 2% PPA, 500 mM NaCl each for 30 minutes at rt. Two further washings in 10% TCA and 2% PPA for 30 minutes were performed, then a final 30 minute wash in 99% EtOH at rt was done and the filtermat was air dried. The dry filtermat was then placed in a sample bag with a Meltilex sheet (Melt-on scintillator sheets 73×109 mm, PE-Wallac 1450-441 for filtermat A) over the filtermat. The bag was trimmed to fit into the microplate heatsealer (PE-Wallac 1495-021). The heatsealer is used to melt the Meltilex on the filtermat. The bag containing the filtermat and the melted Meltilex was then placed into a filter cassette and counted using the Microbeta Jet Scintillation and Luminescence Counter PE-Wallac 1450.

[1] = biological target: T1, PKA (catalytic subunit, bovine heart) (Bos taurus, UniProt P00517); experiment: Protein Kinase A inhibition assay (PKA)
T1 construct: PKA (catalytic subunit, bovine heart, Calbiochem 539486); purchased Calbiochem 539486; host or cells: bovine heart (tissue-derived)
Experimental: as §1
The PKA kinase activity assay utilizes a radioactivity-based format in a 96-well PCR plate with radioactive readout. The PKA activity was assayed in a 25 μL assay mixture containing 25 mM HEPES (pH 7.0), 250 μM ATP, 10 mM MgCl2, 1 mM DTT, 1 mM EDTA (pH 8). 2% DMSO. 250 ng/mL Histone H2B (Roche 223 514), and 2 ng/mL PKA (catalytic subunit, bovine heart, Calbiochem 539486, specific activity=1170 pmol/min*μg). Compounds were screened for inhibition of the PKA kinase activity at a concentration of 10 μM. The kinase reaction was allowed to proceed at 37° C. for 30 minutes, then the reaction was stopped by addition of 5 μL of 0.5M EDTA (pH 8). The remainder of the protocol is identical to the one reported for ERK2.

GSK3β = biological target: T2, GSK3β (Homo sapiens, UniProt P49841); experiment: Glycogen Synthase Kinase 3β inhibition assay (GSK3β)
T2 construct: purchased Upstate Discovery
Experimental: The GSK3β kinase activity assay utilizes a radioactivity-based format in a 96-well PCR plate with radioactive readout. The GSK3 β activity was assayed in a 25 μL assay mixture containing 8 mM HEPES (pH 7.0), 250 μM ATP, 0.2 mM EDTA (pH 8), 2% DMSO, 250 ng/mL Myelin Basic Protein (MBP, Sigma M-1891), and 12 ng/mL GSK3β (Upstate Discovery, specific activity=607 nmol/min*GS2 peptide, concentration of 6.05 mg/mL). Compounds were screened for inhibition of the GSK3β kinase activity at a concentration of 10 μM. The kinase reaction was allowed to proceed at 37° C. for 30 minutes, then the reaction was stopped by addition of 5 μL of 0.5M EDTA (pH 8).

Sequence of His tagged ERK2 (P28482 whole entry): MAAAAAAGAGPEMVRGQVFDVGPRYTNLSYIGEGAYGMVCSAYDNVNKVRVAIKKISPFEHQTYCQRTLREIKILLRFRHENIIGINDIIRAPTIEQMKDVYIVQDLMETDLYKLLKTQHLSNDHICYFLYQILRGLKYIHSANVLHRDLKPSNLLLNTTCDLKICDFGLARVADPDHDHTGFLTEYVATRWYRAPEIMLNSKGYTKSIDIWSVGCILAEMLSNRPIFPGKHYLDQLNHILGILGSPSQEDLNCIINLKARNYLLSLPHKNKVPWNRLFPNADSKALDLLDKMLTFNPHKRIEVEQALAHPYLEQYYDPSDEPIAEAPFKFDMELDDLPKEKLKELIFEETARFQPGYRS
T2 sequence (P49841 whole entry, species assumed): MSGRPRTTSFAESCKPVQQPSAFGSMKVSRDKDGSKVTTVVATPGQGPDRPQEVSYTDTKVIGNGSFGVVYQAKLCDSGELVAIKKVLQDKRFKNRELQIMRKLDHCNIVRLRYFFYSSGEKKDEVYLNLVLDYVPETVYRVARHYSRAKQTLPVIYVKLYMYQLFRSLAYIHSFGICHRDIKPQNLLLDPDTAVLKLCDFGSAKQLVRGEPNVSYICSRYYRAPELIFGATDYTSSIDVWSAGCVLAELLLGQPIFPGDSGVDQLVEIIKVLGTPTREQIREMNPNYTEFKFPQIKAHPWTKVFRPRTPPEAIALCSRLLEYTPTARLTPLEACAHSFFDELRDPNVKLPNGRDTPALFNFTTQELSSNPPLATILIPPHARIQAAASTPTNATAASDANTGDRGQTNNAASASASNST

inhibition at 10 µM (His tagged ERK2): 92.3%
inhibition at 10 µM [1]: 96.8%
inhibition at 10 µM (GSK3β): 100%
Structure (SMILES): NC(=O)[C@]1(N)CC2CC1n1c3ccccc3c3c4c(c5c6ccccc6n2c5c31)C(=O)NC4=O (mixture of isomers) [Compound 5]
